Assay [1] can be described thus: standard rat-tail jerk assay (delay of response to heat stimulus). Format: in vivo. To be noted: subcutaneous, heat sensation. An excerpt: (§1) The analgesic activity of a number of compounds provided by this invention has been determined in the standard rat-tail jerk assay and the mouse writhing assay. The results in the mouse writhing assay are presented as the effective dose in mg./kg. of the tested compound required to inhibit induced writhing in the test animals by fifty percent (ED50). Results are presented in Column II for both subcutaneous (S.C.) and oral (p.o.) administration of the test compound recited in Column I.
Column III presents the effects of the claimed compounds on rats subjected to a heat sensation. The compounds recited in column I were administered subcutaneously to the test animals. The test results are reported as the minimum effective dose (MED) of compound in mg./kg. needed to delay response to the pain stimulus by one second compared to control animals.

A short description of assay [2]: standard mouse writhing assay (inhibition of induced writhing). Format: in vivo.
Text: as §1
(In general: Writhing tests count abdominal constrictions after an irritant is injected.)

The mark [3] stands for this setting: oral, read-out: Mouse Writhing ED50 p.o. (dose required to inhibit induced writhing by fifty percent).
The mark [4] stands for this setting: sc, subcutaneous, read-out: Mouse Writhing ED50 s.c. (dose required to inhibit induced writhing by fifty percent).

Read-outs that look alike come from different tables or passages of the source.

Turning to `CCCC1(c2cccc(O)c2)CC(C)N(C)CC1C` (stereo not drawn) [1,2,5-trimethyl-4-n-propyl-4-(3-hydroxyphenyl)piperidine], the “Rat Tail Jerk MED 1 sec. (minimum effective dose to delay response to the pain stimulus by one second compared to control animals)” value in assay [1] worked out at 20 mg/kg. Also, the ED50 worked out at 16 mg/kg in assay [2] (setting [3]) and 29 mg/kg in assay [2] (setting [4]).
Turning to `CC1CC(C)(c2cccc(O)c2)C(C)CN1C` (stereo not drawn) [1,2,4,5-Tetramethyl-4-(3-hydroxyphenyl)piperidine], in assay [1], the “Rat Tail Jerk MED 1 sec. (minimum effective dose to delay response to the pain stimulus by one second compared to control animals)” value was 1 mg/kg. Further, the ED50 came out at 9.2 mg/kg in assay [2] (setting [3]) and 1.25 mg/kg in assay [2] (setting [4]).
In the case of `COc1cccc(C2(C)CC(C)N(C)CC2C)c1` (stereo not drawn) [1,2,4,5-Tetramethyl-4-(3-methoxyphenyl)piperidine], the “Rat Tail Jerk MED 1 sec. (minimum effective dose to delay response to the pain stimulus by one second compared to control animals)” value in assay [1] is 10 mg/kg. Moreover, the ED50 in assay [2] (setting [3]) was 16 mg/kg; in assay [2] (setting [4]), 19 mg/kg.
The matching figures for `CCOC(=O)C1(c2ccccc2)CCN(C)CC1` [Meperidine, meperidine, reference compound]: 3.0 mg/kg, 21 mg/kg and 2.8 mg/kg.
Turning to `CCCC1(c2cccc(OC)c2)CC(C)N(C)CC1C` (stereo not drawn) [1,2,5-Trimethyl-4-n-propyl-4-(3-methoxyphenyl)-piperidine], the “Rat Tail Jerk MED 1 sec. (minimum effective dose to delay response to the pain stimulus by one second compared to control animals)” value in assay [1] was found to be 2 mg/kg. The ED50 was found to be 11.5 mg/kg in assay [2] (setting [3]) and 4 mg/kg in assay [2] (setting [4]).

One may read the ED50 as the dose that gives a 50% effect, or the effect in half of the subjects.

(Values after patent US4228288A, “Certain substituted 3,4,5,6-tetrahydropyridinium salt intermediates” (Eli Lilly and Company, priority 1979, dated 1980).)
